Experimental data: PubChem BioAssay (NCI)
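Step 1: Grow cells in 96-well plates. Step 2: Expose to compound for 48 hours at 5 concentrations. Step 3: Interpolate endpoints linearly; if unreached, use highest concentration. TGI denotes the concentration required for complete inhibition of growth.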

Tests used:
Test in all cases: NCI tumour cell line growth inhibition, 48 h
[1] = tested on: 786-0 renal
[2] = tested on: A498 renal
[3] = tested on: A549 NSCLC
[4] = tested on: ACHN renal
[5] = tested on: CAKI-1 renal
[6] = tested on: COLO 205 colon
[7] = tested on: DU-145 prostate
[8] = tested on: EKVX NSCLC
[9] = tested on: HCT-116 colon
[10] = tested on: HCT-15 colon
[11] = tested on: HOP-62 NSCLC
[12] = tested on: HOP-92 NSCLC
[13] = tested on: HS 578T breast
[14] = tested on: HT29 colon
[15] = tested on: IGROV1 ovarian
[16] = tested on: KM12 colon
[17] = tested on: LOX IMVI melanoma
[18] = tested on: M14 melanoma
[19] = tested on: MALME-3M melanoma
[20] = tested on: MCF7 breast
[21] = tested on: MDA-MB-231 breast
[22] = tested on: MDA-MB-435
[23] = tested on: MDA-N
[24] = tested on: MOLT-4 leukemia
[25] = tested on: NCI-H226 lung
[26] = tested on: NCI-H23 lung
[27] = tested on: NCI-H460 lung
[28] = tested on: NCI-H522 lung
[29] = tested on: NCI/ADR-RES ovarian
[30] = tested on: OVCAR-3 ovarian
[31] = tested on: OVCAR-4 ovarian
[32] = tested on: OVCAR-5 ovarian
[33] = tested on: OVCAR-8 ovarian
[34] = tested on: RPMI-8226 leukemia
[35] = tested on: SF-268 CNS
[36] = tested on: SF-295 CNS
[37] = tested on: SF-539 CNS
[38] = tested on: SK-MEL-2 melanoma
[39] = tested on: SK-MEL-28 melanoma
[40] = tested on: SK-MEL-5 melanoma
[41] = tested on: SN12C renal
[42] = tested on: SNB-19 CNS
[43] = tested on: SNB-75 CNS
[44] = tested on: SR leukemia
[45] = tested on: SW-620 colon
[46] = tested on: T-47D breast
[47] = tested on: TK-10 renal
[48] = tested on: UACC-257 melanoma
[49] = tested on: UO-31 renal
[50] = tested on: CCRF-CEM leukemia
[51] = tested on: HCC-2998 colon
[52] = tested on: K-562 leukemia
[53] = tested on: PC-3 prostate
[54] = tested on: RXF 393 renal
[55] = tested on: SK-OV-3 ovarian
[56] = tested on: U251 CNS
[57] = tested on: UACC-62 melanoma
[58] = tested on: HL-60(TB) leukemia

CC(=O)OCC1OC(n2c3c(c(-c4ccco4)c(C#N)c2=S)CCCC3)C(OC(C)=O)C(OC(C)=O)C1OC(C)=O (stereo not given)
TGI [1]: 52.6 µM | TGI [2]: 22.1 µM | TGI [3]: > 31.6 µM | TGI [4]: > 31.6 µM | TGI [5]: 87.8 µM | TGI [6]: > 31.6 µM | TGI [7]: > 31.6 µM | TGI [8]: 29.8 µM | TGI [9]: > 31.6 µM | TGI [10]: > 31.6 µM | TGI [11]: 21.8 µM | TGI [12]: 19.3 µM | TGI [13]: 85.6 µM | TGI [14]: > 31.6 µM | TGI [15]: > 31.6 µM | TGI [16]: > 31.6 µM | TGI [17]: > 31.6 µM | TGI [18]: > 100 µM | TGI [19]: > 31.6 µM | TGI [20]: > 100 µM | TGI [21]: > 31.6 µM | TGI [22]: > 100 µM | TGI [23]: > 31.6 µM | TGI [24]: > 31.6 µM | TGI [25]: > 31.6 µM | TGI [26]: > 31.6 µM | TGI [27]: > 31.6 µM | TGI [28]: > 31.6 µM | TGI [29]: > 31.6 µM | TGI [30]: > 31.6 µM | TGI [31]: > 31.6 µM | TGI [32]: > 31.6 µM | TGI [33]: > 100 µM | TGI [34]: > 100 µM | TGI [35]: > 31.6 µM | TGI [36]: 21.5 µM | TGI [37]: > 31.6 µM | TGI [38]: > 31.6 µM | TGI [39]: > 31.6 µM | TGI [40]: > 31.6 µM | TGI [41]: > 31.6 µM | TGI [42]: 26.2 µM | TGI [43]: 24.6 µM | TGI [44]: > 31.6 µM | TGI [45]: > 100 µM | TGI [46]: > 31.6 µM | TGI [47]: 24.8 µM | TGI [48]: > 31.6 µM | TGI [49]: > 31.6 µM

COc1cc2c(cc1OC)C1Cc3ccccc3CN1CCC2 (stereo not given)
TGI [1]: > 100 µM | TGI [2]: > 100 µM | TGI [3]: > 100 µM | TGI [4]: > 100 µM | TGI [5]: > 100 µM | TGI [50]: > 100 µM | TGI [6]: > 100 µM | TGI [7]: > 100 µM | TGI [8]: > 100 µM | TGI [51]: > 100 µM | TGI [9]: > 100 µM | TGI [10]: > 100 µM | TGI [11]: > 100 µM | TGI [12]: > 100 µM | TGI [13]: > 100 µM | TGI [14]: > 100 µM | TGI [15]: > 100 µM | TGI [52]: > 100 µM | TGI [16]: > 100 µM | TGI [17]: > 100 µM | TGI [18]: > 100 µM | TGI [19]: > 100 µM | TGI [20]: > 100 µM | TGI [21]: > 100 µM | TGI [22]: > 100 µM | TGI [23]: > 100 µM | TGI [24]: > 100 µM | TGI [25]: > 100 µM | TGI [26]: > 100 µM | TGI [27]: > 100 µM | TGI [28]: > 100 µM | TGI [29]: > 100 µM | TGI [30]: > 100 µM | TGI [31]: > 100 µM | TGI [32]: > 100 µM | TGI [33]: > 100 µM | TGI [53]: > 100 µM | TGI [54]: > 100 µM | TGI [35]: > 100 µM | TGI [36]: > 100 µM | TGI [37]: > 100 µM | TGI [38]: > 100 µM | TGI [39]: > 100 µM | TGI [40]: > 100 µM | TGI [55]: > 100 µM | TGI [41]: > 100 µM | TGI [42]: > 100 µM | TGI [43]: > 100 µM | TGI [44]: > 100 µM | TGI [45]: > 100 µM | TGI [46]: > 100 µM | TGI [47]: > 100 µM | TGI [56]: > 100 µM | TGI [48]: > 100 µM | TGI [57]: > 100 µM

CN1c2ccccc2C(=O)Nc2cnc(Cl)nc21
TGI [1]: > 100 µM | TGI [2]: > 100 µM | TGI [3]: > 100 µM | TGI [4]: > 100 µM | TGI [5]: > 100 µM | TGI [50]: > 100 µM | TGI [6]: > 100 µM | TGI [7]: > 100 µM | TGI [8]: > 100 µM | TGI [51]: > 100 µM | TGI [9]: > 100 µM | TGI [10]: > 100 µM | TGI [58]: > 100 µM | TGI [11]: > 100 µM | TGI [12]: > 100 µM | TGI [14]: > 100 µM | TGI [15]: > 100 µM | TGI [52]: > 100 µM | TGI [16]: > 100 µM | TGI [17]: > 100 µM | TGI [18]: > 100 µM | TGI [19]: > 100 µM | TGI [20]: > 100 µM | TGI [21]: > 100 µM | TGI [22]: > 100 µM | TGI [23]: > 100 µM | TGI [24]: > 100 µM | TGI [25]: > 100 µM | TGI [26]: > 100 µM | TGI [28]: > 100 µM | TGI [29]: > 100 µM | TGI [30]: > 100 µM | TGI [31]: > 100 µM | TGI [32]: > 100 µM | TGI [33]: > 100 µM | TGI [53]: > 100 µM | TGI [34]: > 100 µM | TGI [54]: > 100 µM | TGI [36]: > 100 µM | TGI [37]: > 100 µM | TGI [38]: > 100 µM | TGI [39]: > 100 µM | TGI [40]: > 100 µM | TGI [55]: > 100 µM | TGI [41]: > 100 µM | TGI [42]: > 100 µM | TGI [43]: > 100 µM | TGI [45]: > 100 µM | TGI [46]: > 100 µM | TGI [47]: > 100 µM | TGI [56]: > 100 µM | TGI [48]: > 100 µM | TGI [57]: > 100 µM | TGI [49]: > 100 µM

C=CC(C)(C)n1cc(C2=C(O)C(=O)C(c3cn(C(C)(C)C=C)c4ccccc34)=C(OC(C)=O)C2=O)c2ccccc21
TGI [1]: 2.8 µM | TGI [2]: 2.1 µM | TGI [4]: 2.55 µM | TGI [5]: 2.28 µM | TGI [6]: 3.07 µM | TGI [7]: 2.23 µM | TGI [51]: 2.16 µM | TGI [11]: 1.94 µM | TGI [12]: 1.95 µM | TGI [15]: 1.65 µM | TGI [52]: 2.17 µM | TGI [16]: 1.97 µM | TGI [17]: 1.72 µM | TGI [19]: 3.06 µM | TGI [21]: 2.63 µM | TGI [22]: 1.74 µM | TGI [23]: 1.99 µM | TGI [28]: 2.97 µM | TGI [30]: 2.25 µM | TGI [31]: 2.64 µM | TGI [32]: 3.08 µM | TGI [53]: 1.99 µM | TGI [34]: 3.88 µM | TGI [54]: 2.38 µM | TGI [36]: 1.88 µM | TGI [39]: 2.5 µM | TGI [40]: 1.87 µM | TGI [55]: 2.85 µM | TGI [43]: 1.55 µM | TGI [48]: 2.19 µM | TGI [57]: 2.18 µM | TGI [49]: 2.3 µM
